Experimental data reported in patent US20230270810A1, “VETERINARY COMPOSITIONS FOR THE TREATMENT AND/OR PREVENTION OF PROTOZOAN DISEASES AND METHODS OF PREPARATION THEREOF” (ADIFEED SP. Z O. O., priority 2020, published 2023).

Legend:
[1] = system: Trypanosoma cruzi; conditions: read-out: inhibitory effect on 50% of the population (IC50); cited from earlier work
[2] = system: Trypanosoma cruzi and Leishmania chagasi; conditions: cited from earlier work
[3] = system: Trypanosoma cruzi and different Leishmania species; conditions: cited from earlier work
[4] = system: Gregarina blattarum; test: in vitro protozoicidal test, LD50/LD100 within 3 minutes, gregarines isolated from cockroaches; assay type: cell-based; conditions: in Ringer's solution
Description: For in vitro tests of antiprotozoal activity of the composition five reference organisms representing taxonomic groups to which pathogenic protozoa belong were selected, i.e: • Amoeba proteus—Chaos diffluens—a protozoan of the order Euamoebida, belonging to fifth supergroup of the Amoebozoa, living in waters. • Paramecium caudatum—a slipper animalcule representing the Ciliata orachs, living in waters. • Gregarina blattarum—gregarine isolated from cockroaches, representing the phylum Apicomplexa, living in the digestive tracts or body cavities of invertebrates. • Euglena gracilis—a protozoan living in water, representing the flagellates—Mastigophora, family Euglenaceae. • Trichomonas hominis—a protozoan living in the human colon, representing the Trichomonadidae.
The gregarines were isolated from the cockroaches and, after being placed on a watch slide, were treated with the products at different concentrations in Ringer's solution. Each sample contained ten individuals. […]
The mixture was heated at the boiling point, until the colour changed, under reflux for 20 minutes. […] Compositions I and II were then analysed for their antiprotozoal properties. […]
Individual acids, catalyst solution, essential oil and metal salt solutions were additionally analysed for protozoal properties. […] Observation under a fluorescence microscope with phase contrast was carried out.

[5] = system: Amoeba proteus; test: in vitro protozoicidal test, LD50/LD100 within 3 minutes; assay type: cell-based
[6] = system: Trichomonas hominis; test: as above; assay type: cell-based
[7] = death of 50% of individuals within 3 minutes
[8] = death of 100% of individuals within 3 minutes

Structure (SMILES): CC1CS(=O)(=O)CCN1/N=C/c1ccc([N+](=O)[O-])o1 (stereo not drawn) [Nifurtimox]
- IC50 [1]: 6 µM
- IC50 [2]: 0.3 to 0.4 µg/mL

Structure (SMILES): O=C(Cn1ccnc1[N+](=O)[O-])NCc1ccccc1 [benznidazole]
- values obtained (in vitro antiprotozoal activity) [3]: 45.02 µg/mL

Structure (SMILES): Cc1ncc([N+](=O)[O-])n1CCO [M, metronidazole]
- LD50 ([4]; 50% of individuals within 3 minutes): 0.13%
- LD100 ([4]; 100% of individuals within 3 minutes): 0.3%
- LD50 [5, 7]: 0.3%
- LD100 [5, 8]: 0.5%
- LD50 [6, 7]: 0.05%
- LD100 [6, 8]: 0.1%
